Results from ChEMBL document CHEMBL1121451, “Neuroleptic activity in 5-aryltetrahydro-gamma-carbolines” (J Med Chem, 1980).

Tests used:
Rattus norvegicus [1] = assay: Tested for neuroleptic activity by measuring antagonism of d-amphetamine sulfate at intraperitoneal dosage of 5 mg/kg, after 1 hour in rat; Range is 0.1-0.32; assay type: functional; conditions: ip
Rattus norvegicus [2] = assay: Tested for neuroleptic activity by measuring antagonism of d-amphetamine sulfate at intraperitoneal dosage of 5 mg/kg, after 5 hours in rat; Range is 0.1-0.32; assay type: functional; conditions: ip
Rattus norvegicus [3] = assay: Tested for neuroleptic activity by measuring antagonism of d-amphetamine sulfate at intraperitoneal dosage of 5 mg/kg, after 24 hours in rat; Range is 0.32-1.0; assay type: functional; conditions: ip
Rattus norvegicus [4] = species on record: Rattus norvegicus; assay: animal or person; conditions: ip, 1 h
Description: tested for neuroleptic activity by measuring antagonism of d-amphetamine sulfate at intraperitoneal dosage of 5 mg/kg, after 1 hour in rat

Rattus norvegicus [5] = species on record: Rattus norvegicus; assay: animal or person; conditions: ip, 24 h
Description: tested for neuroleptic activity by measuring antagonism of d-amphetamine sulfate at intraperitoneal dosage of 5 mg/kg, after 24 hours in rat

Rattus norvegicus [6] = species on record: Rattus norvegicus; assay: animal or person; conditions: ip, 5 h
Description: tested for neuroleptic activity by measuring antagonism of d-amphetamine sulfate at intraperitoneal dosage of 5 mg/kg, after 5 hours in rat

Rattus norvegicus [7] = assay: Tested for neuroleptic activity by measuring antagonism of d-amphetamine sulfate at intraperitoneal dosage of 5 mg/kg, after 1 hour in rat; Range is 0.32-1.0; assay type: functional; conditions: ip
Rattus norvegicus [8] = assay: Tested for neuroleptic activity by measuring antagonism of d-amphetamine sulfate at intraperitoneal dosage of 5 mg/kg, after 5 hours in rat; Range is 1.0-3.2; assay type: functional; conditions: ip
Rattus norvegicus [9] = assay: Tested for neuroleptic activity by measuring antagonism of d-amphetamine sulfate at intraperitoneal dosage of 5 mg/kg, after 24 hours in rat; Range is 10-32; assay type: functional; conditions: ip

OC(CCCN1CCc2c(c3cc(F)ccc3n2-c2ccc(F)cc2)C1)c1ccc(F)cc1 (centres undefined) [FLUTROLINE]
ED50 (Rattus norvegicus [1]): 0.1 mg/kg
ED50 (Rattus norvegicus [2]): 0.1 mg/kg
ED50 (Rattus norvegicus [3]): 0.32 mg/kg

Cl.O=C(CCN1CCc2c(c3cc(F)ccc3n2-c2ccc(F)cc2)C1)c1ccc(F)cc1
ED50 (Rattus norvegicus [4]): > 32 mg/kg
ED50 (Rattus norvegicus [5]): > 32 mg/kg
ED50 (Rattus norvegicus [6]): > 32 mg/kg

Cl.OC(CCCN1CCc2c(c3cc(F)ccc3n2-c2ccc(F)cc2)C1)c1cccc(F)c1 (centres undefined)
ED50 (Rattus norvegicus [7]): 0.32 mg/kg
ED50 (Rattus norvegicus [8]): 1 mg/kg
ED50 (Rattus norvegicus [9]): 10 mg/kg
